Assay results from US7504537B2, “Hydroxamic acid derivative and MMP inhibitor containing the same as active ingredient” (Dainippon Sumitomo Pharma Co., Ltd., priority 2001, dated 2009).
pIC50: −log10 of the molar value.

Columns and labels:
MMP-14 (MT1-MMP) = biological target: T1, MMP-14 (MT1-MMP) (Homo sapiens, UniProt P50281); experiment: Test 5 MMP-14 (MT1-MMP) inhibiting activity test; assay type: biochemical; details: human recombinant MT1-MMP, 37° C.; read-out: MMP-14 inhibition activity value
T1 construct: purchased Biogenesis, supplied by Cosmobio (Nakarai Tesku)
Description: Test 5 MMP-14 (MTI-MMP) Inhibiting Activity Test
Human recombinant MTI-MMP used the product prepared by Biogenesis and supplied by Cosmobio (Nakarai Tesku).
An assay buffer solution (70 μl, pH 7.5 solution containing 0.1M Tris-HCl solution, 0.1M calcium chloride solution, 10 mM sodium chloride solution and 0.05% Brij-35 solution), 0.1 w/w % a compound in DMSO (10 μl), MMP substrate solution (MOCAc-Pro-Leu-Gly-Leu-A2pr(DNP)-Ala-Arg-NH2 (Peptide Lab.) diluted with the assay buffer solution (50 μM, 10 μl)) and human recombinant MT1-MMP (0.4 pg/10 μl/well) were well agitated under stirring. The enzyme activity of the mixture was measured based on fluorescence intensity (λex 320 nm/λem 405 nm) by a fluorescence reader. After the mixture was incubated at 37° C. for 0.5 hour, the fluorescence intensity (λex 320 nm/λem 405 nm) was measured every hour, and IC50 was calculated.
The inhibition value was calculated by withdrawing average value of blank well from fluorescence mean value of well in which MT1-MMP was added. As the blank was used the mixed solution prepared by adding assay buffer (10 μl) instead of MT1-MMP solution.

MMP-1 = biological target: T2, MMP-1 (Homo sapiens, UniProt P03956); experiment: Test 6 MMP-1 inhibition activity test; assay type: biochemical; details: MMP-1 from human rheumatic synovium fibroblast, activated with AMPA
T2 construct: calbiochem cat; purchased calbiochem 444208; host or cells: human rheumatic synovium fibroblast
T2 sequence (P03956 100-469): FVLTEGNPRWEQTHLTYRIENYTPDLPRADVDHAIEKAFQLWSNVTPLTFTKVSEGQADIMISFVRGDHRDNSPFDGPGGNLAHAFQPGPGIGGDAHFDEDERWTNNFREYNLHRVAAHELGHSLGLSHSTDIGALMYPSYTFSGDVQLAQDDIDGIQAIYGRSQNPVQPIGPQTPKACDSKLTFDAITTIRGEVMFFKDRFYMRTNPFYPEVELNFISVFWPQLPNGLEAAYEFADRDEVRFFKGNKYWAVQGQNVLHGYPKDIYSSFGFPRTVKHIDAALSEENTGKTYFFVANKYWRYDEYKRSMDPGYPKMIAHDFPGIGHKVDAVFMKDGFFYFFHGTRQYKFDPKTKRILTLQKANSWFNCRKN
Description: Test 6 MMP-1 Inhibition Activity Test
MMP-1 (stroma collagenase: EC3.4.24.7, human rheumatic synovium fibroblast, calbiochem cat. 444208) was activated with AMPA at 37° C. for 60 minutes. A test compound was preincubated with activated MMP-1 at 37° C. for 60 minutes in the reaction mixture containing 50 mM MOPS (pH 7.2), 10 mM aqueous calcium chloride solution, and 10 μM zinc chloride. Thereto was added 25 μM Mca-Pro-Leu-Dpa-Ala-Arg-NH2, and the mixture was incubated at 37° C. for 120 minutes. The enzyme activity was measured by fluorescence intensity of Mca-Pro-Leu-Gly, and IC50 was calculated.

MMP-13 = biological target: T3, MMP-13 (Homo sapiens, UniProt P45452); experiment: Test 2 Test on MMP-13 inhibition activity (fluorogenic peptide substrate); assay type: biochemical; details: activated MMP-13, 37° C.
T3 construct: a fragment of 767 bp encoding original 84 amino acids of complete MMP-13 and encoding 164 amino acids; made in house; host or cells: E. coli BL21 (DE3), pET11a
Excerpt: Test 2 Test on MMP-13 Inhibition Activity
In order to subcloning C-terminal truncated cDNA in which the cDNA encodes procollagenase-3 (proMMP-13) (J. Biol. Chem., 269(24), 16766-16773 (1994)), two synthesized oligonucleotide primer fragments: • (5′-[…]-3′ and 5′-[…]-3′: In former the sequence for specific NdeI site (under line) including first methionine is included, and in latter terminal codon and BamHI site (under lined) are included.) were used with human cartilage cell cDNA library for PCR. Due to these primers and Pfu DNA polymelase (STRATAGENE) for PCR, there was obtained a fragment of 767 bp encoding original 84 amino acids of complete MMP-13 and encoding 164 amino acids. The said fragment was cut out with digestion by NdeI and BamHI, and the fragment was annealed to NdeI site and BamHI site of pET11a (STRATAGENE). The recombinant plasmid was transformed into E. coli BL21 (DE3) and the bacteria were cultivated. The crude cell extract was prepared according to the method of Biochemistry. The said extract was dialyzed with 20 mM Tris-HCl (pH 7.2)/5 mM CaCl2/0.02% NaN3 solution, treated with SP-sepharose HP column (1.6×10 cm, Amasham-Pharmacia biotec), and the eluting was carried out by liner gradient from 0 to 0.3 m of sodium chloride solution (50 ml) (partially purified proMMP-13 was eluted at about 0.2M.) The eluted fraction was dialyzed with 20 mM Tris-HCl (pH 7.9)/5 mM CaCl2/200 mM (NH4)2SO4/0.02% NaN3 solution, treated with phenylsepharose HP column (1.6×5 cm, Amersham-Pharmacia biotec), and the eluting was carried out by liner gradient from 0.2M to 0M sulfuric acid ammonium solution (purified proMMP-13 was eluted at about 50 mM.). The eluted fraction was concentrated by YM-5 ultrafilter membrane, and activated by 4-aminophenyl mercuric acetate. Activated MMP-13 was treated with gel filtration chromatography in accordance with the method of Biochemistry to be separated from propeptide. Inhibiting Test Method
Enzyme activity test was carried out by the method of G. Knight (FEBS Lett., 296(3), 263-266 (1992)).
A mixture of activated MMP-13 (20 nM, 10 μl), buffer solution (70 μl, pH 7.5 solution containing 100 mM Tris-HCl solution, 10 mM calcium chloride solution, 100 mM sodium chloride solution and 0.05% Briji-35 solution), MOCAc-Pro-Leu-Gly-Leu-A2pr(DNP)-Ala-Arg-NH2 in 0.1% DMSO solution (100 μM, 10 μl) and a test compound in DMSO solution was incubated for 1.5 hours at 37° C. The mixture was put on a 96 well-plate (100 μl/wel), and the plate was incubated at 37° C. The enzyme activity in the presence of the compound was measured based on fluorescence intensity (λex 320 nm, λem 405 nm), and IC50 was calculated.

Adjuvant Arthritis = experiment: Test 7 Adjuvant arthritis (in vivo); set-up: species or system rat; details: Lewis male rats, 50 mg/kg per os once a day for twelve days
Excerpt: Test 7 Adjuvant Arthritis (in vivo) For this test Lewis male rats were used. The suspension prepared by suspending Mycobacterium butyricum in liquid paraffin in concentration of 0.5% was subcutaneously injected in a right hind paw. Ten days later the rats in which the definite secondary inflammation on a left hind paw was observed were selected, and to the rats the compound (Example 2) suspended in 0.5% methyl cellulose was orally administered for twelve successive days once a day. Five hours later after finishing administration the volume of the hind paws was compared with the volume when the administration was initiated, and the inhibition activity of edema was evaluated based on this difference.

Row | SMILES | pIC50 (MMP-14 (MT1-MMP)) | pIC50 (MMP-1) | pIC50 (MMP-13) | Increase of edema, Non injected limb (Adjuvant Arthritis; control 1.07 ± 0.31) | Increase of edema, Injected limb (Adjuvant Arthritis; control −0.24 ± 0.45)
1 | CCOCCN(C1(C(=O)NO)CCCC1)S(=O)(=O)c1ccc(Oc2ccc(S(C)(=O)=O)cc2)cc1 [Example 45, 1-[(2-Ethoxyethyl)({4-[4-(methylsulfonyl)phenoxy]phenyl}sulfonyl)amino]-N-hydroxycyclopentanecarboxamide] | < 5.82 | 5.30 | 9.22 |  | 
2 | CC(C)CN(C1(C(=O)NO)CCCC1)S(=O)(=O)c1ccc(Oc2ccc(S(C)(=O)=O)cc2)cc1 [Example 2, N-hydroxy 1-[isobutyl({4-[4-(methylsulfonyl)phenoxy]phenyl}sulfonyl)amino]cyclopentanecarboxamide] | 5.42 | 5.14 | 8.24 | 0.74 ± 0.16 mL | -1.06 ± 0.47 mL
3 | CC(C)CN(C1(C(=O)NO)CCC1)S(=O)(=O)c1ccc(Oc2ccc(S(C)(=O)=O)cc2)cc1 [Example 18, N-Hydroxy-1-[isobutyl({4-[4-(methylsulfonyl)phenoxy]phenyl}sulfonyl)amino]cyclobutanecarboxamide] | 6.10 | 5.48 | 8.51 |  | 
